From US12043448B2, “Compositions for containers and other articles and methods of using same” (SWIMC LLC, priority 2012, dated 2024)

What follows are molecules tested on MCF-7, clone WS8, cells (assay: MCF-7 cell proliferation assay of estrogenic activity). Conditions: logarithmic value (base 10) of Relative Proliferative Effect in the MCF-7 assay; table gives 'expected or measured' values.
Assay type: cell-based, human
From the text: The MCF-7 assay is a useful test for assessing whether a polyhydric phenol compound is appreciably non-estrogenic. The MCF-7 assay uses MCF-7, clone WS8, cells to measure whether and to what extent a substance induces cell proliferation via estrogen receptor (ER)-mediated pathways. The method is described in “Test Method Nomination: MCF-7 Cell Proliferation Assay of Estrogenic Activity” submitted for validation by CertiChem, Inc. to the National Toxicology Program Interagency Center for the Evaluation of Alternative Toxicological Methods (NICEATM) on Jan. 19, 2006 (available online at http://iccvam.niehs.nih.gov/methods/endocrine/endodocs/SubmDoc.pdf).
A brief summary of the method of the aforementioned MCF-7 assay is provided below. MCF-7, clone WS8, cells are maintained at 37° C. in RMPI (or Roswell Park Memorial Institute medium) containing Phenol Red (e.g., GIBCO Catalog Number 11875119) and supplemented with the indicated additives for routine culture. An aliquot of cells maintained at 37° C. are grown for 2 days in phenol-free media containing 5% charcoal stripped fetal bovine serum in a 25 cm^2 tissue culture flask. Using a robotic dispenser such as an epMotion 5070 unit, MCF-7 cells are then seeded at 400 cells per well in 0.2 ml of hormone-free culture medium in Corning 96-well plates. The cells are adapted for 3 days in the hormone-free culture medium prior to adding the chemical to be assayed for estrogenic activity. The media containing the test chemical is replaced daily for 6 days. At the end of the 7-day exposure to the test chemical, the media is removed, the wells are washed once with 0.2 ml of HBSS (Hanks' Balanced Salt Solution), and then assayed to quantify amounts of DNA per well using a micro-plate modification of the Burton diphenylamine (DPA) assay, which is used to calculate the level of cell proliferation.
RPE is the ratio between the EC50 of the test chemical and the EC50 of the control substance 17-beta estradiol times 100, where EC50 is “effective concentration […]” or half-maximum stimulation concentration for cell proliferation measured as total DNA in the MCF-7 assay.

SMILES | Log RPE
C[C@]12CC[C@@H]3c4ccc(O)cc4CC[C@H]3[C@@H]1CC[C@@H]2O [17β-estradiol, reference compound] | 2.00
Oc1ccc(Cc2ccc(O)cc2)cc1 [Bisphenol F, reference compound] | −2
O=S(=O)(c1ccc(O)cc1)c1ccc(O)cc1 [Bisphenol S, reference compound] | −2
O=c1c(-c2ccc(O)cc2)coc2cc(O)cc(O)c12 [Genistein, reference compound] | −2
CC(c1ccc(O)cc1)(c1ccc(O)cc1)c1ccc(O)cc1 [Structure 3] | −3
CC(c1ccccc1)(c1ccc(O)cc1)c1ccc(O)cc1 [Structure 4] | −3
CC(C(=O)O)(c1ccc(O)cc1)c1ccc(O)cc1 [Structure 5] | less than −4
CCCC(c1cc(C(C)(C)C)c(O)cc1C)c1cc(C(C)(C)C)c(O)cc1C [Structure 7] | less than −4
CC(C)(c1ccc(O)cc1)c1ccc(C(C)(C)c2ccc(O)cc2)cc1 [Structure 10] | less than −4
Oc1ccccc1Cc1ccccc1O [Structure 11] | less than −4
CC(C)(C)c1cc(O)c(C(C)(C)C)cc1O [Structure 12] | less than −4
CC(C)(c1cc(Br)c(O)c(Br)c1)c1cc(Br)c(O)c(Br)c1 [Structure 16] | −3
C/C=C(/C(=C/C)c1ccc(O)cc1)c1ccc(O)cc1 [dienestrol, reference compound] | about 2
CC/C(=C(/CC)c1ccc(O)cc1)c1ccc(O)cc1 [diethylstilbestrol, reference compound] | about 2
